What is called Ki is a measure of affinity in units of concentration, obtained from inhibition or displacement. Read a high Ki as a looser hold on the target.

This assay has as its target Carbonic anhydrase 9 (Homo sapiens, UniProt Q16790). As to the kind of experiment: Inhibition of human CA9 pre-incubated for 10 mins by stopped-flow CO2 hydrase assay.

The structures appear in SMILES notation.

The molecule `NS(=O)(=O)c1ccc(CCN2C(=O)c3cccc4cc([N+](=O)[O-])cc(c34)C2=O)cc1` yielded an inhibition constant Ki of 0.242 µM. For `NS(=O)(=O)c1ccc(N2C(=O)c3cccc4cc([N+](=O)[O-])cc(c34)C2=O)cc1` the value was 0.218 µM; for `NS(=O)(=O)c1ccc(Cn2c(=O)c3cc4c(=O)n(Cc5ccc(S(N)(=O)=O)cc5)c(=O)c4cc3c2=O)cc1`, 0.639 µM. `NS(=O)(=O)c1ccc(CCN2C(=O)c3cccc4cccc(c34)C2=O)cc1` showed an inhibition constant Ki of 0.108 µM. On to `NS(=O)(=O)c1ccc(CN2C(=O)c3cccc4cc([N+](=O)[O-])cc(c34)C2=O)cc1`, for which the Ki is 0.251 µM.

On to `NS(=O)(=O)c1ccc(-n2c(=O)c3ccccc3c3ccccc3c2=O)cc1`, for which the inhibition constant (Ki) amounted to 0.0931 µM. In turn, `NS(=O)(=O)c1ccc(CCn2c(=O)c3ccccc3c3ccccc3c2=O)cc1` yielded a Ki of 0.301 µM.

For `NS(=O)(=O)c1ccc(CN2C(=O)c3ccc4c5c(ccc(c35)C2=O)C(=O)N(Cc2ccc(S(N)(=O)=O)cc2)C4=O)cc1`, the affinity, expressed as Ki, was 2.78 µM. `NS(=O)(=O)CCN1C(=O)c2ccc3c4c(ccc(c24)C1=O)C(=O)N(CCc1ccc(S(N)(=O)=O)cc1)C3=O` returned an inhibition constant (Ki) of 0.0255 µM.

The molecule `NS(=O)(=O)c1ccc(Cn2c(=O)c3ccccc3c3ccccc3c2=O)cc1` yielded a Ki of 0.191 µM. As to `NS(=O)(=O)c1ccc(-n2c(=O)c3cc4c(=O)n(-c5ccc(S(N)(=O)=O)cc5)c(=O)c4cc3c2=O)cc1`, the affinity, expressed as Ki, was 0.251 µM.

Molecule `NS(=O)(=O)c1ccc(CN2C(=O)c3cccc4cccc(c34)C2=O)cc1` registered a Ki of 0.108 µM. Take `NS(=O)(=O)c1ccc(N2C(=O)c3cccc4cccc(c34)C2=O)cc1`: the inhibition constant Ki was found to be 0.287 µM.

The molecule `NS(=O)(=O)c1ccc(N2C(=O)c3ccc4c5c(ccc(c35)C2=O)C(=O)N(c2ccc(S(N)(=O)=O)cc2)C4=O)cc1` displayed an inhibition constant Ki of 0.0239 µM. `NS(=O)(=O)c1ccc(CCn2c(=O)c3cc4c(=O)n(CCc5ccc(S(N)(=O)=O)cc5)c(=O)c4cc3c2=O)cc1` gave a Ki of 2.05 µM.

Values taken from ChEMBL document CHEMBL4043158, “Synthesis and carbonic anhydrase inhibition of polycyclic imides incorporating N-benzenesulfonamide moieties” (Bioorg Med Chem, 2017).
